From US12195410B2, “Nitrapyrin compositions for enhancing nitrogen nutrient use efficiency and improving plant growth” (Verdesian Life Sciences U.S., LLC, priority 2018, dated 2025)

Tests used:
[1] = Formation of solutions of nitrapyrin salts at 20% w/w nitrapyrin and grading of solutions; assay type: physicochemical; set-up: key: 5: Fully dissolved; 4: Mostly dissolved; 3: Mostly not dissolved; 2: Not dissolved; 1: Additional precipitate
From the text: Example 2. Formation of Solutions of Nitrapyrin Salts and Grading of Solutions

[2] = Nitrapyrin volatilization, weight loss on heated balance at 100° C.; assay type: physicochemical; conditions: for weight as a percent of original weight: heated balance 100° C.
Procedure: Three materials were placed on a heated balance at 100° C. and had their weights observed every minute for 10 minutes, as a percent of original weight. The materials were: • 1. pure nitrapyrin, • 2. 25% w/w solution of nitrapyrin in sulfolane, and • 3. solution of 25% nitrapyrin salt with equimolar (on acid basis) amount of maleic-itaconic copolymer, also in sulfolane (nitrapyrin/polyanionic polymer salt).
Therefore, the disclosed nitrapyrin salts substantially reduce the volatilization of nitrapyrin.

[3] = solvent Rhodiasolv Polarclean (L)
[4] = solvent propylene carbonate (F)
[5] = solvent tripropylene glycol (E)

Row | Compound | grading of solution ([1]; solvent Agnique AMD3L (I)) | grading of solution ([1]; solvent Agnique AMD810 (H)) | grading of solution ([1]; solvent PT250 (C)) | grading of solution ([1]; solvent PT700 (B)) | grading of solution ([1]; solvent Rhodiasolv ADMA10 (J)) | grading of solution ([1]; solvent Rhodiasolv ADMA810 (K)) | grading of solution [1, 3] | grading of solution ([1]; solvent dipropylene glycol (A)) | grading of solution [1, 4] | grading of solution ([1]; solvent triacetin (G)) | grading of solution ([1]; solvent triethylene glycol (D)) | grading of solution [1, 5] | also measured
1 | CC(O)(P(=O)(O)O)P(=O)(O)O.Clc1cccc(C(Cl)(Cl)Cl)n1.Clc1cccc(C(Cl)(Cl)Cl)n1.Clc1cccc(C(Cl)(Cl)Cl)n1.Clc1cccc(C(Cl)(Cl)Cl)n1 [etidronic] | 5 | 4 | 1 | 4 | 5 | 4 | 5 | 1 | 2 | 2 | 1 | 1 | 
2 | Clc1cccc(C(Cl)(Cl)Cl)n1.Clc1cccc(C(Cl)(Cl)Cl)n1.O=C(O)c1cccc(C(=O)O)c1 [isophthalic] | 3 | 3 | 1 | 2 | 3 | 3 | 3 | 2 | 3 | 3 | 1 | 4 | 
3 | Clc1cccc(C(Cl)(Cl)Cl)n1.Clc1cccc(C(Cl)(Cl)Cl)n1.O=C(O)CC(O)C(=O)O [malic] | 5 | 5 | 1 | 4 | 5 | 5 | 5 | 2 | 3 | 3 | 2 | 2 | 
4 | Clc1cccc(C(Cl)(Cl)Cl)n1 [nitrapyrin without solvent, Nitrapyrin] |  |  |  |  |  |  |  |  |  |  |  |  | weight as a percent of original weight ([2]; experiment time 0 min): 100.00%; weight as a percent of original weight ([2]; experiment time 1 min): 99.20%; weight as a percent of original weight ([2]; experiment time 2 min): 98.56%; weight as a percent of original weight ([2]; experiment time 3 min): 97.92%; weight as a percent of original weight ([2]; experiment time 4 min): 96.00%; weight as a percent of original weight ([2]; experiment time 5 min): 94.87%; weight as a percent of original weight ([2]; experiment time 6 min): 93.75%; weight as a percent of original weight ([2]; experiment time 7 min): 92.63%; weight as a percent of original weight ([2]; experiment time 8 min): 90.87%; weight as a percent of original weight ([2]; experiment time 9 min): 89.90%; weight as a percent of original weight ([2]; experiment time 10 min): 89.10%; nitrapyrin sulfolane volatility ratio, Delta 3-10 ([2]; nitrapyrin without solvent vs. solvent alone, 100° C., 3 to 10 min): 401%; nitrapyrin sulfolane volatility ratio, Delta 4-10 ([2]; nitrapyrin without solvent vs. solvent alone, 100° C., 4 to 10 min): 392%; nitrapyrin sulfolane volatility ratio, Delta 5-10 ([2]; nitrapyrin without solvent vs. solvent alone, 100° C., 5 to 10 min): 393%
5 | O=C(O)CCC(=O)O [succinic] | 5 | 5 | 1 | 4 | 5 | 5 | 5 | 3 | 3 | 2 | 2 | 3 | 
6 | O=C(O)C(O)C(O)C(=O)O (centres unmarked) [tartaric] | 5 | 5 | 1 | 2 | 5 | 5 | 5 | 2 | 2 | 2 | 1 | 2 | 
